Source: patent US11680253B2, “Transposase-mediated imaging of the accessible genome” (The Board of Trustees of the Leland Stanford Junior …, priority 2016, dated 2023)

What was measured:
[1] = system: human neutrophils; assay: NETosis of PMA-activated primary human neutrophils (ATAC-see / ATAC-seq); format: cell-based
Experimental: Human neutrophils were isolated from healthy donor's blood following as described under a Stanford University IRB-approved protocol^23. In brief, 7 ml of heparinized blood was layered on 7 ml Histopaque 1119 (11191-100ML, Sigma Aldrich) in a 15 ml Falcon tube, and the mixture was spun 20 min at 800× g at room temperature. The interphase (lymphocytes and monocytes) was discarded and the granulocyte-rich layer of Histopaque 1119 (diffuse, red phase above RBC pellet) was collected in a new tube. 5 ml of cells were washed with 10 ml of medium (HBSS+), and spun 10 min at 200× g at room temperature. The cells were resuspended in 3 ml DPBS with 0.5% human serum albumin (101-15-50, Lee BioSolutions), and the cell suspension was layered on 10 ml of a discontinuous Percoll gradient (85% to 65% Percoll) and spun 20 min at 800×g at room temperature. The interphase between 70% and 75% Percoll layers were collected in a new 15 ml tube. The tube was added with DPBS with 0.5% human serum albumin up to 15 ml and spun for 10 min at 200× g at room temperature. The cell pellet was resuspended in RPMI-HEPES (10 mM) at 1.5×10^6 cells per ml for neutrophil activation.
Human neutrophils were stimulated by Phorbol myristate acetate (PMA) as described^23. Briefly, the purified neutrophils were suspended in 3 ml RPMI 1640 with final concentration of 1.5×10^6 per ml in loosen cap 15 ml falcon tube, and incubated in cell culture CO2 incubator (5% CO2, 37° C.) with final concentration of 30 nM PMA for 1 h, 3 h, and 5 h respectively. After 2 h of simulation, protease inhibitor cocktail was added at a 1:200 dilution to both control and simulated tubes. At the respective time points, neutrophils were fixed with 1% formaldehyde for 10 min at room temperature, and fixed neutrophil cells spun down on the glass slide with cytospin 1000 rpm 5 min at room temperature for ATAC-see or immuno-staining.
The PAD4 inhibition was performed as previously described^25.
80% confluent Human HT1080 cells (30-50,000 cells) grown in 8 well chamber slides were fixed with 1% formaldehyde (Sigma, USA) for 10 min and quenched with 0.125 M glycine for 5 min at room temperature. After fixation, slides were put in PBS at 4° C. […] The 50 μl transposase reaction solution was added onto the slide, and the cells on slide were incubated at 37° C. for 30 min. For the imaging and sequencing, slides were mounted using Vectorshield and images were taken with a Zeiss LSM 700. After imaging, the coverslip was removed and cells were lysed with 50 μl of 50 mM Tris-Cl, 1 mM EDTA, 1% SDS, 0.2 M NaCl 5 min on slide at room temperature. The cell lysis was carefully transferred to 1.5 ml eppendorf tube. The glass slide was washed with 50 μl of the same buffer another 3 times and washing solutions were transferred to the same tube carefully. […]

[2] = target: Tn5 (Escherichia coli, UniProt Q46731, E54K/L372P); conditions: 50 mM EDTA, HT1080 cells
Experimental: HT1080 cells and HeLa cells were grown on secureSlip cell culture system (0515073, GRACE BIO-LABS) until 80-90% confluent and fixed with 1% formaldehyde (Sigma-Aldrich) for 10 min at room temperature. GM12878 cells were fixed with 1% formaldehyde (Sigma) 10 min at room temperature and centrifuged on the glass slide with Cytospin, 1000 rpm for 5 min, 30-50,000 cells per slide.
ATAC-see: After fixation, the cells (either growing on slide or centrifuged on glass slide with cytospin) were permeabilized with lysis buffer (10 mM Tris-Cl, pH 7.4, 10 mM NaCl, 3 mM MgCl2, 0.01% Igepal CA-630) for 10 min at room temperature. After the permeabilization, the slides were rinsed in PBS twice, and put in humid chamber box at 37° C. The transposase mixture solution (25 μl 2× TD buffer, final concentration of 100 nM Tn5-ATTO-59ON, adding dH2O up to 50 μl) was added on the slide and incubated for 30 min at 37° C. […] After washing, slides were mounted using Vectashield with DAPI (H-1200, Vector labs) for imaging with Leica SP8 or Zeiss 700 or for additional co-staining with Lamin B1 or mitochondria (see the materials and methods above).

CCCCCCCCCCCCCC(=O)O[C@@H]1[C@@H](C)[C@@]2(O)[C@@H](C=C(CO)C[C@]3(O)C(=O)C(C)=C[C@@H]23)[C@@H]2C(C)(C)[C@]12OC(C)=O [PMA, Phorbol myristate acetate]
neutrophils that have released their chromatin into the extracellular space ([1]; 30 nM PMA, after 3 hrs of stimulation): 49.7% | neutrophils that have released NETs ([1]; 30 nM PMA, after 5 hrs of stimulation): 59.7%

O=C(O)CN(CCN(CC(=O)O)CC(=O)O)CC(=O)O [EDTA]
ATAC-see signal, % of control [2]: 2.69%±0.04

NC(=O)[C@H](CCCN=C(N)CCl)NC(=O)c1ccccc1 [Cl-amidine]
NETosis ([1]; 200 μM Cl-amidine 30 min before PMA stimulation): inhibited | release of free DNA from mononucleosomes ([1]; PAD4i-treated, after 5 hrs of neutrophil activation): fail to release free DNA from mononucleosomes
